Experiments:
[1] = system: asexual erythrocytic stages of transgenic NF54-luc P. falciparum; assay: Luciferase-based viability screening for antiplasmodial activity; assay type: cell-based, Plasmodium falciparum; conditions: 48 h
Description: For the luciferase-based viability assays, asexual erythrocytic stages of transgenic NF54-luc P. falciparum were used. These parasites constitutively express high luciferase levels. The parasites were cultured as described previously. Parasite cultures with parasitaemia of 0.5–1% were dispensed in triplicate into white 96-well flat-bottom plates (each well contains 250 µL) (NUNC, Roskilde, Denmark) and incubated in the presence of 3 µM test compounds for 48 h (37 °C, 90% N2, 5% CO2, and 5% O2). 0.01% DMSO was included in the untreated infected RBC cultures as negative control, since the compounds stock initially was diluted in DMSO and each treatment well also contained 0.01% DMSO. Subsequently, 100 µL RPMI1640 media was removed from each well and a 100 µL volume of the Bright-Glo® substrate solution was added to each well. The resultant cleavage product of the reaction, light, was measured using a […] luminometer (Thermo), to ascertain viable parasites. Untreated cultures were used as negative controls and to calculate the inhibition rate (0% inhibition of parasite growth). Experiments were performed in triplicate and were repeated as a whole at least twice. Blasticidin (Sigma-Aldrich, St. Louis, MO, USA), used for selection of transfected parasites, was included as a positive control on each plate and gave > 90% inhibition of parasite growth at concentration 2 µg/mL. […] For active compounds IC50 values were determined from dose–response curves. Calculation of parasite growth inhibition, of the IC50 values and statistical analysis were carried out using GraphPad Prism Version 6.0b (GraphPad Software, Inc. San Diego, CA).

[2] = molecular target: HsGSK-3 (Homo sapiens, UniProt P49841); assay: Kinase-Glo Plus assay for inhibition of HsGSK-3; assay type: biochemical; conditions: 6 µM ATP; mean of three determinations, range in brackets
HsGSK-3, sequence (P49841 whole entry): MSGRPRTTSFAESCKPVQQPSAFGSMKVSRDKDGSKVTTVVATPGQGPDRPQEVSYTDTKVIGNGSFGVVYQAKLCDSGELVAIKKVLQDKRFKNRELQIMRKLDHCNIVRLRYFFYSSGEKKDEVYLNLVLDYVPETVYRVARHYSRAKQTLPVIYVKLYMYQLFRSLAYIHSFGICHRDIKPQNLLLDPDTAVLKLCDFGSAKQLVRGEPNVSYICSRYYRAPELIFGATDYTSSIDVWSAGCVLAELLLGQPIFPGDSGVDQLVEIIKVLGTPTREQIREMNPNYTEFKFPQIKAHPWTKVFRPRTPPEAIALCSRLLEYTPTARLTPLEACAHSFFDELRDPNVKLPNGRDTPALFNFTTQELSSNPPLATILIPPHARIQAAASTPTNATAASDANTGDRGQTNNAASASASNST
Description: Kinase reaction mix was transferred to a solid white 384 well plate (NUNC, Thermo Scientific) and kinase reaction was stopped by adding 5 μL RT Kinase-Glo reagent. After 10 min luminescence was measured in an EnVision multilabel plate reader (Perkin Elmer, integration time 0.5 s/well). […] All samples were normalized to a negative control (reaction without kinase). Data points were plotted into Graphpad Prism, normalized to a DMSO control and IC50 values were calculated using nonlinear regression.

CN(C)CCN(C)c1ccc(-c2c(C#N)c(N)nc3sc(C(=O)c4cccc(Cl)c4)c(N)c23)c(Cl)c1 [4h]
% inhibition ± SD, PfNF54-Luc at 3 µM ([1]; 3 µM test compound, luciferase readout, ± SD): 99.9 ± 0.1% | IC50 ([1]; from dose-response curves, read-out: IC50 [µM], PfNF54-Luc): 1.2 µM | IC50 [2]: 40.2 µM
